# According to patent US7098204B2 (C.N.R.S., priority 1999, dated 2006):
# What was measured:
# CDK1/cyclin B = CDK1/cyclin B kinase assay (histone H1); assay type: biochemical, starfish (Marthasterias glacialis)
# Procedure: (§1) Kinases activities were assayed in Buffer A or C (unless otherwise stated), at 30° C., at a final ATP concentration of 15 μM. Blank values were subtracted and activities calculated as pmoles of phosphate incorporated for a 10 min. incubation (usually expressed in % of the maximal activity, i.e. without inhibitors). Controls were performed with appropriate dilutions of Me2SO. In some cases phosphorylation of the substrate was assessed by autoradiography after SDS-PAGE. IC50 values were estimated from the dose-response curves. • CDK1/cyclin B was extracted in homogenisation buffer from M phase starfish (Marthasterias glacialis) oocytes and purified by affinity chromatography on p9^CKShs1-Sepharose beads, from which it was eluted by free p9^CKShs1 as described. The kinase activity was assayed in buffer C, with 1 mg histone H1/ml, in the presence of 15 μM [γ-^32P] ATP (3,000 Ci/mmol; 1 mCi/ml) in a final volume of 30 μl. After 10 min. incubation at 30° C., 25 μl aliquots of supernatant were spotted onto 2.5×3 cm pieces of Whatman P81 phosphocellulose paper, and, 20 sec. later, the filters were washed five times (for at least 5 min. each time) in a solution of 10 ml phosphoric acid/liter of water. The wet filters were counted in the presence of 1 ml ACS (Amersham) scintillation fluid. • GSK-3β was either purified from rabbit muscle or expressed in and purified from insect Sf9 cells. It was assayed, following a 1/100 dilution in 1 mg BSA/ml 10 mM DTT, with 5 μl 40 μM GS-1 peptide as a substrate, in buffer A, in the presence of 15 μM [γ-^32P] ATP (3,000 Ci/mmol; 1 mCi/ml) in a final volume of 30 μl. […] Its activity was assayed in buffer C as described for CDK1/cyclin B. • CDK2/cyclin A, CDK2/cyclin E, CDK3/cyclin E, CDK4/cyclin D1, CDK6/cyclin D2, His-tagged erk1 and erk2, protein kinase C isoforms, the catalytic subunit of cAMP-dependent protein kinase, cGMP-dependent protein kinase, Myosin light chain kinase, casein kinases 1 & 2, ASK-γ (a plant homologue of GSK-3), insulin receptor tyrosine kinase domain (CIRK-41), c-raf, MAPKK, c-jun N terminal kinase (obtained from Promega), c-src kinase and v-abl kinase were assayed as described. Electrophoresis and Western Blotting
# cdk2/cyclin A = cdk2/cyclin A (Homo sapiens, UniProt P24941); assay: cdk2/cyclin A kinase assay; assay type: biochemical; settings: 15 μM ATP
# Procedure: (§2) Kinases activities were assayed in Buffer A or C (unless otherwise stated), at 30° C., at a final ATP concentration of 15 μM. Blank values were subtracted and activities calculated as pmoles of phosphate incorporated for a 10 min. incubation (usually expressed in % of the maximal activity, i.e. without inhibitors). Controls were performed with appropriate dilutions of Me2SO. In some cases phosphorylation of the substrate was assessed by autoradiography after SDS-PAGE. IC50 values were estimated from the dose-response curves. • CDK1/cyclin B was extracted in homogenisation buffer from M phase starfish (Marthasterias glacialis) oocytes and purified by affinity chromatography on p9^CKShs1-Sepharose beads, from which it was eluted by free p9^CKShs1 as described. The kinase activity was assayed in buffer C, with 1 mg histone H1/ml, in the presence of 15 μM [γ-^32P] ATP (3,000 Ci/mmol; 1 mCi/ml) in a final volume of 30 μl. After 10 min. incubation at 30° C., 25 μl aliquots of supernatant were spotted onto 2.5×3 cm pieces of Whatman P81 phosphocellulose paper, and, 20 sec. later, the filters were washed five times (for at least 5 min. each time) in a solution of 10 ml phosphoric acid/liter of water. The wet filters were counted in the presence of 1 ml ACS (Amersham) scintillation fluid. • GSK-3β was either purified from rabbit muscle or expressed in and purified from insect Sf9 cells. […]
# cdk2/cyclin E = cdk2/cyclin E (Homo sapiens, UniProt P24941); assay: cdk2/cyclin E kinase assay; assay type: biochemical; settings: 15 μM ATP
# Procedure: as §2
# cdk3/cyclin E = cdk3/cyclin E (Homo sapiens, UniProt Q00526); assay: cdk3/cyclin E kinase assay; assay type: biochemical; settings: 15 μM ATP
# Procedure: as §2
# cdk6/cyclin D2 = cdk6/cyclin D2 (Homo sapiens, UniProt Q00534); assay: cdk6/cyclin D2 kinase assay; assay type: biochemical; settings: 15 μM ATP
# Procedure: as §2
# c-Jun N-terminal kinase = c-Jun N-terminal kinase assay; assay type: biochemical; settings: 15 μM ATP
# Procedure: as §2
# protein kinase C α = protein kinase C α (Homo sapiens, UniProt P17252); assay: protein kinase C α assay; assay type: biochemical; settings: 15 μM ATP
# Procedure: as §2
# protein kinase C β2 = protein kinase C β2 (Homo sapiens, UniProt P05771); assay: protein kinase C β2 assay; assay type: biochemical; settings: 15 μM ATP
# Procedure: as §2
# protein kinase C γ = protein kinase C γ (Homo sapiens, UniProt P05129); assay: protein kinase C γ assay; assay type: biochemical; settings: 15 μM ATP
# Procedure: as §2
# protein kinase C ε = protein kinase C ε (Homo sapiens, UniProt Q02156); assay: protein kinase C ε assay; assay type: biochemical; settings: 15 μM ATP
# Procedure: as §2
# protein kinase C ζ = protein kinase C ζ (Homo sapiens, UniProt Q05513); assay: protein kinase C ζ assay; assay type: biochemical; settings: 15 μM ATP
# Procedure: as §2
# ASK-γ (plant GSK-3) = ASK-γ (plant GSK-3) (Arabidopsis thaliana, UniProt P43289); assay: ASK-γ kinase assay; assay type: biochemical
# Procedure: as §2
# casein kinase 1 = casein kinase 1 assay; assay type: biochemical; settings: 15 μM ATP; −(x) = no effect at highest concentration x tested; read-out: IC50 casein kinase 1 (CK 1)
# Procedure: as §1
# c-abl tyrosine kinase = c-abl tyrosine kinase (Abelson murine leukemia virus, UniProt P00521); assay: c-abl tyrosine kinase assay; assay type: biochemical; settings: 15 μM ATP
# Procedure: as §2
# CDK5/p35 [1] = molecular target: T1, CDK5/p35 (Rattus norvegicus, UniProt Q03114); assay: In vitro Pak1 phosphorylation by immunoprecipitated CDK5/p35; assay type: biochemical; settings: CDK5/p35 immunoprecipitated from P02 rat cortices; read-out: IC50 CDK5/p35 towards GST-Pak1K299
# Procedure: CDK5/p35 was immunoprecipitaed from P02 rat cortices using the C-terminal Santa Cruz antibody (400 μg total protein per kinase assay). The immunoprecipitate was split into equal aliquots and the kinase assays performed using GST-Pak1 K299 as a substrate. […] Phosphorylation was monitored by autoradiography.
# [2] = system: GSK-3β like activity in Sf9 cells; assay: Tau (htau23) phosphorylation in Sf9 cells, Western blotting; assay type: cell-based; settings: 50 μM, 5 hrs, Sf9 cells expressing htau23
# Procedure: Cells and viruses. Sf9 cells (InVitrogen, San Diego, Calif.) were grown at 27° C. in monolayer culture Grace's medium (Gibco BRL, Gaithersburg, Md.) supplemented with 10% fetal bovine serum and 50 μg gentamycin/ml and 2.5 μg amphotericin/ml. BaculoGold was obtained from PharMingen (San Diego, Calif.), pVL1392 from In Vitrogen.
# Tau transfection. The gene for htau23, the shortest human tau isoform [27] was excised from the bacterial expression vector pNG2 [28] with XbaI and BamHI, and inserted into the baculovirus transfer vector pVL1392 cut with the same restriction endonucleases. The BaculoGold system was used to construct the tau baculovirus containing vector. The BaculoGold DNA is a modified type of baculovirus containing a lethal deletion. Cotransfection of the BaculoGold DNA with a complementing baculovirus transfer vector rescued the lethal deletion of this virus DNA and reconstituted viable virus particles carrying the htau23 coding sequence. Plasmid DNA used for transfections was purified using QIAGEN cartridges (Hilden, Germany). Sf9 cells grown in monolayers (2×10^6 cells in a 60 mm cell culture dish) were cotransfected with baculovirus DNA (0.5 μg BaculoGold DNA) and with vector derivatives of pVL1392 (2 μg) using a calcium phosphate coprecipitation method. […]
# ovary, OVCAR-3 = assay: Human cancer cell line OVCAR-3 proliferation; assay type: cell-based
# kidney, A498 = assay: Human cancer cell line A498 proliferation; assay type: cell-based
# lung, H460 = assay: Human cancer cell line H460 proliferation; assay type: cell-based; settings: NCI-H460
# colon, KM20L2 = assay: Human cancer cell line KM20L2 proliferation; assay type: cell-based; settings: KM-20L2
# CDK5/p35 [3] = molecular target: T1, CDK5/p35; assay: In vivo Pak1 phosphorylation in cultured E18 cortical neurones; assay type: cell-based; set-up: endogenous in cells; host or cells: primary cortical neurones from E18 rat embryos; settings: 1 hour exposure
# Procedure: HD was added onto cultured neurones obtained from E18 rat embryo cortices when the cultures were 4 days old. As a control DMSO was used to the maximal volume of drug used (7.5 μl). The drug was left on the cells for 1 hour. The cells were then lysed on ice in STM buffer and the membrane fraction isolated with STM containing 0.5% NP-40 [17].
# Pak1 immunoprecipitations were carried out using a specific polyclonal antibody, followed by kinase assays using histone H4 as a a substrate. The amount of H4 phosphorylation, reflecting the level of Pak1 activity, was determined by measuring the intensity of the bands on autoradiography film and quantitating with NIH imaging program.
# As loading controls Pak1 and p35 western blots were made. The latter protein increases in amount with the level of CDK5/p35 kinase inhibition.
# T1 sequence (Q03114 whole entry): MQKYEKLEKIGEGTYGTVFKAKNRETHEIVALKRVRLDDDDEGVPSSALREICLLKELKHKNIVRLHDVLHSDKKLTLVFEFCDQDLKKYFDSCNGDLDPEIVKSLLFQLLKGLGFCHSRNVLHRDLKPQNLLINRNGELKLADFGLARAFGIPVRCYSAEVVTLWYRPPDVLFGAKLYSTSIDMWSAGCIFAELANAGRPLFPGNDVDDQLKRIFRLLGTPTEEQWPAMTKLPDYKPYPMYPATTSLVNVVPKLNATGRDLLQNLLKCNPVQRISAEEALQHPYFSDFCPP
# T1 sequence (P61810 2-307 partner limits assumed): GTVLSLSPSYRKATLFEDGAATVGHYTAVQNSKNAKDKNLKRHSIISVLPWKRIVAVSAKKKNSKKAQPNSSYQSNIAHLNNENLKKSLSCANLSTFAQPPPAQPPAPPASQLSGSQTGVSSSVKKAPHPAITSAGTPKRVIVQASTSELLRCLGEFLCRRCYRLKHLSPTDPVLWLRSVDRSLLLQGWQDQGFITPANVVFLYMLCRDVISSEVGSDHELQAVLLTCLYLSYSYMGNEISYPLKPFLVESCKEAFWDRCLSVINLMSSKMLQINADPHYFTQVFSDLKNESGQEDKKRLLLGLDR
# Sequence of c-abl tyrosine kinase (P00521 whole entry): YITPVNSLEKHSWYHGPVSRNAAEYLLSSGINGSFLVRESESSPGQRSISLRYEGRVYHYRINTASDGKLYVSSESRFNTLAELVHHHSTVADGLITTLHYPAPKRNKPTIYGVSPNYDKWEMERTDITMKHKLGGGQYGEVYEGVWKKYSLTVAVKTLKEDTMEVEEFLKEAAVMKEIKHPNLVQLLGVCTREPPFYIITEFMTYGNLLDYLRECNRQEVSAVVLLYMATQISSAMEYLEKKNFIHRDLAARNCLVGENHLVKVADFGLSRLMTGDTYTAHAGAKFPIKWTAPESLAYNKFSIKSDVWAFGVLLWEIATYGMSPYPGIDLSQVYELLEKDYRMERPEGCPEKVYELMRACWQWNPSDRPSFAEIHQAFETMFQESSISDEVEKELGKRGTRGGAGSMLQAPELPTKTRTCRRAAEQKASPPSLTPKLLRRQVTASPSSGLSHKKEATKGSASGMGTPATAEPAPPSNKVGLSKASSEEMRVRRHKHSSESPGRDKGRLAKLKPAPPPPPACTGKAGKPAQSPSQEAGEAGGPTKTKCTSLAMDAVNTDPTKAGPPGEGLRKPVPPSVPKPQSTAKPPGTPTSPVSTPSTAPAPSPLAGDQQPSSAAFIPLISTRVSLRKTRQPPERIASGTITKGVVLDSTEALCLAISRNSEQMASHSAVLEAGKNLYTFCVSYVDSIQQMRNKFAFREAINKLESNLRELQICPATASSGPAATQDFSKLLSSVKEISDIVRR
# Sequence of protein kinase C ε (Q02156 whole entry): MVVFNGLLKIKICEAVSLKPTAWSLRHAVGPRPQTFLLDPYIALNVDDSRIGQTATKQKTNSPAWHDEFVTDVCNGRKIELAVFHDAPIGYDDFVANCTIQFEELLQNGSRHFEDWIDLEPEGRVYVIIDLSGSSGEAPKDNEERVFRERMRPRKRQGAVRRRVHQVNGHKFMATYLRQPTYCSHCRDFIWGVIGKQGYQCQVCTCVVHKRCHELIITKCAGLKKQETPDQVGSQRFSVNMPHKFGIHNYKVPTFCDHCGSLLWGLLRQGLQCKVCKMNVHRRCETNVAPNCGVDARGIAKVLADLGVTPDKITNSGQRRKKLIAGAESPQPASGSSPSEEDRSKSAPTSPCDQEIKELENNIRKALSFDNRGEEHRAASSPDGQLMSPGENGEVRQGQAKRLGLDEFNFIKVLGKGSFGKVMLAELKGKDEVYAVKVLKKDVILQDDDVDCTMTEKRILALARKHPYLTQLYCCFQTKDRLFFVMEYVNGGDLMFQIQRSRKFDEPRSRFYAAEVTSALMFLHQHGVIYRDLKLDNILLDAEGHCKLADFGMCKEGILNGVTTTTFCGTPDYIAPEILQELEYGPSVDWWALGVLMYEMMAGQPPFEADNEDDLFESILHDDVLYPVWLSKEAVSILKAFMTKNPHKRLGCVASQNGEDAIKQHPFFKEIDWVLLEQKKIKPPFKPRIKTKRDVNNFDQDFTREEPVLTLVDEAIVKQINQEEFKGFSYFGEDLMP
# Sequence of ASK-γ (plant GSK-3) (P43289 whole entry): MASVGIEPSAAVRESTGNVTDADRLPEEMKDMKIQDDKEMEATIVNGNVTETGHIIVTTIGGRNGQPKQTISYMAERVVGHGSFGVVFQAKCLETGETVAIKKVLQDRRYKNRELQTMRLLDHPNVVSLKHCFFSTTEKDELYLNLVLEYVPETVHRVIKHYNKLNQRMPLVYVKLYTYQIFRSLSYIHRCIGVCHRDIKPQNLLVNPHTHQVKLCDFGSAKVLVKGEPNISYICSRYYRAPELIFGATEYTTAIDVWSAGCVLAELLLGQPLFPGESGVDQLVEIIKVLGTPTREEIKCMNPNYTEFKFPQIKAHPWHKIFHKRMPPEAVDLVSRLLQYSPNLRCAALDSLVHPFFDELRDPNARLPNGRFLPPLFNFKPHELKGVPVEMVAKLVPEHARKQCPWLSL
# Sequence of protein kinase C ζ (Q05513 whole entry): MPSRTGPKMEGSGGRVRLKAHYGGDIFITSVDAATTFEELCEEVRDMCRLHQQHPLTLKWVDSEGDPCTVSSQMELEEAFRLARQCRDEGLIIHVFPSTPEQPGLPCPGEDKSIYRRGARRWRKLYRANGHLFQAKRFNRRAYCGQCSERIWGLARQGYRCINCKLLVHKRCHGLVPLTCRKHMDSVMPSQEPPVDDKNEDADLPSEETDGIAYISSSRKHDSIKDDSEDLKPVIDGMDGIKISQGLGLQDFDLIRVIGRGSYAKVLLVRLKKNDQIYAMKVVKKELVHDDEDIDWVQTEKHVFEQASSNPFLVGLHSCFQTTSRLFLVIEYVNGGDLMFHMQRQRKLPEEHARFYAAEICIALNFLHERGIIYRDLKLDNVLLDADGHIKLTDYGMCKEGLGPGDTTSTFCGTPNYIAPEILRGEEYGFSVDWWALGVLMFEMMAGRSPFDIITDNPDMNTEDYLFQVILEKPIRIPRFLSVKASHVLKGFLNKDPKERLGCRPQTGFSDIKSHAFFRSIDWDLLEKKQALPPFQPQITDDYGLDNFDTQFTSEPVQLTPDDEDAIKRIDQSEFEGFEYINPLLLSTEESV
compound,measurement,setting,value
"NC1=NC(=O)C(=C2CCNC(=O)c3[nH]c(Br)cc32)N1 [hymenialdisine, 4-(2-amino-4-oxo-2-imidazolin-5-ylidene)-2-bromo-4,5,6,7-tetrahydropyrrolo (2,3-c) azepine-8-one]",IC50,CDK1/cyclin B,22 nM
same,IC50,cdk2/cyclin A,70 nM
same,IC50,cdk2/cyclin E,40 nM
same,IC50,cdk3/cyclin E,100 nM
same,IC50,cdk6/cyclin D2,700 nM
same,IC50,c-Jun N-terminal kinase,8500 nM
same,IC50,protein kinase C α,700 nM
same,IC50,protein kinase C β2,1700 nM
same,IC50,protein kinase C γ,500 nM
same,IC50,protein kinase C ε,6500 nM
same,IC50,protein kinase C ζ,60000 nM
same,IC50,ASK-γ (plant GSK-3),80 nM
same,IC50,casein kinase 1,35 nM
same,IC50,c-abl tyrosine kinase,4000 nM
same,IC50,CDK5/p35 [1],10 to 100 nM
same,AT100 signal (tau phosphorylated at T212 and S214),[2],disappearance of AT100 signal
same,IC50,"ovary, OVCAR-3",1.8 µg/mL
same,IC50,"kidney, A498",24.7 µg/mL
same,IC50,"lung, H460",42 µg/mL
same,IC50,"colon, KM20L2",8.5 µg/mL
same,Pak1 activity (H4 phosphorylation) in neurons,CDK5/p35 [3],increase in Pak1 activity
